Data published in publication PMC7155171, “Probing the Open Global Health Chemical Diversity Library for Multistage-Active Starting Points for Next-Generation Antimalarials” (ACS Infectious Diseases, 2020).
Like-named read-outs stand apart in the source and are kept apart here.

What was measured:
P. falciparum Dd2 = assay: SYBR green I asexual blood stage proliferation assay (96 h); assay type: cell-based, Plasmodium falciparum; settings: for IC50 / Emax: Plasmodium falciparum
[1] = test system: P. falciparum Dd2 (PfLuc) line expressing firefly luciferase, asexual blood stage; assay: microbe, parasite or virus in culture; assay type: cell-based, Plasmodium falciparum; settings: Plasmodium falciparum
[2] = DD2, Sybr Green I, 11-pt dose response, 96hr, read-out: CDD P. falciparum Sybr Green I ABS 11-pt Reconfirmation Dose Response (96hr): IC50
[3] = DD2, Sybr Green I, 11-pt dose response, 96hr, read-out: CDD P. falciparum Sybr Green I ABS 11-pt Reconfirmation Dose Response (96hr): Maximum inhibition (%)
[4] = DD2, read-out: CDD P. falciparum Luciferase ABS 11-pt Reconfirmation Dose Response (48hr): IC50 (μM), 11-pt dose response, 48hr
[5] = DD2, 8-pt dose response, 96hr, read-out: CDD P. falciparum Luciferase ABS 8-pt Reconfirmation Dose Response (96hr): IC50
[6] = DD2, 8-pt dose response, 96hr, read-out: CDD P. falciparum Luciferase ABS 8-pt Reconfirmation Dose Response (96hr): Maximum inhibition (%)
[7] = DD2, 11-pt dose response, 48hr, read-out: CDD P. falciparum Luciferase ABS 11-pt Reconfirmation Dose Response (48hr): Maximum inhibition (%)
[8] = DD2, 11-pt dose response, 96hr, read-out: CDD P. falciparum Luciferase ABS 11-pt Reconfirmation Dose Response (96hr): IC50
[9] = DD2, 11-pt dose response, 96hr, read-out: CDD P. falciparum Luciferase ABS 11-pt Reconfirmation Dose Response (96hr): Maximum inhibition (%)
[10] = DD2, 11-pt dose response, 96hr, read-out: P. falciparum Sybr Green I ABS 11-pt Reconfirmation Dose Response (96hr): IC50
[11] = DD2, 11-pt dose response, 96hr, read-out: P. falciparum Sybr Green I ABS 11-pt Reconfirmation Dose Response (96hr): Maximum inhibition (%)
[12] = DD2, read-out: P. falciparum Luciferase ABS 11-pt Reconfirmation Dose Response (48hr): IC50, 11-pt dose response, 48hr
[13] = DD2, 8-pt dose response, 96hr, read-out: P. falciparum Luciferase ABS 8-pt Reconfirmation Dose Response (96hr): IC50
[14] = DD2, 8-pt dose response, 96hr, read-out: P. falciparum Luciferase ABS 8-pt Reconfirmation Dose Response (96hr): Maximum inhibition (%)
[15] = DD2, 11-pt dose response, 48hr, read-out: P. falciparum Luciferase ABS 11-pt Reconfirmation Dose Response (48hr): Maximum inhibition (%)
[16] = DD2, 11-pt dose response, 96hr, read-out: P. falciparum Luciferase ABS 11-pt Reconfirmation Dose Response (96hr): IC50
[17] = DD2, 11-pt dose response, 96hr, read-out: P. falciparum Luciferase ABS 11-pt Reconfirmation Dose Response (96hr): Maximum inhibition (%)
[18] = 96 h incubation, Dd2 luciferase, read-out: 96 hour Pfluc IC50

| SMILES | IC50 (P. falciparum Dd2; [2]) | Emax (P. falciparum Dd2; [3]) | IC50 [1, 4] | IC50 [1, 5] | Emax [1, 6] | Emax [1, 7] | IC50 [1, 8] | Emax [1, 9] | further results |
| --- | --- | --- | --- | --- | --- | --- | --- | --- | --- |
| NCC1Cc2cc(-c3nccc(N4CCC(O)CC4)n3)cc(F)c2O1 (stereo not shown) [DDD01254054] | 2490 nM | 92% | 2.43 µM | 0.59 µM | 94.6% | 91.4% | 1.87 µM | 98.9% |  |
| COCCN(C)Cc1cc(Cl)ccc1OCC(O)CN1CCCCCC1 (stereo not shown) [DDD01254091] |  |  |  |  |  |  |  |  | IC50 (P. falciparum Dd2; [10]): 3770 nM; Emax (P. falciparum Dd2; [11]): 91.7%; IC50 [1, 12]: 3 µM; IC50 [1, 13]: 1.11 µM; Emax [1, 14]: 94.7%; Emax [1, 15]: 98.3%; IC50 [1, 16]: > 1.39 µM; Emax [1, 17]: 101% |
| Nc1nc2c(c(N3CCCC(c4nnc5ccccn45)C3)n1)CCNC2 (stereo not shown) [DDD01254485] | > 12500 nM | 52.8% | > 12.5 µM | 0.18 µM | 90.3% | 46.1% | 0.312 µM | 95.2% |  |
| CNc1nc(C)cc(NC2CCCN(C3Cc4ccccc4C3)C2)n1 (stereo not shown) [DDD01254555] | 1020 nM | 87% | 2.19 µM | 1.11 µM | 92.9% | 82.6% | 1.07 µM | 100% |  |
| Cc1ccccc1N1CCCN(CC2(O)CCCNC2)CC1 (stereo not shown) [DDD01254676] | 1590 nM | 91.2% | 3.64 µM | 0.54 µM | 90.4% | 89.1% | 1.37 µM | 97.2% |  |
| CN(Cc1ncc[nH]1)c1nc(-c2ccccn2)nc2c1CCNCC2 [DDD01254777, CN(Cc1ncc[nH]1)c1nc(nc2CCNCCc12)-c1ccccn1] |  |  |  |  |  |  |  |  | CDD P. falciparum Sybr Green I ABS Dd2 Dose Response: Maximum measured (%) (P. falciparum Dd2; Dd2, 96 h): 65.7%; IC50 (P. falciparum Dd2; DD2, 96 h, read-out: CDD P. falciparum Sybr Green I ABS Dd2 Dose Response: IC50): > 4160 nM; IC50 ([1]; DD2, read-out: CDD P. falciparum Luc 11pt dose response (96hr, n=2): IC50 (μM), 96hr, 11-point, n=2): 0.214 µM; IC50 ([1]; DD2, read-out: CDD P. falciparum Luciferase 11pt dose response (48hr, n=2): IC50 (μM), 48hr, 11-point, n=2): 10.2 µM; Emax ([1]; DD2, 48hr, 11-point, read-out: CDD P. falciparum Luciferase ABS 11-pt Reconfirmation Dose Response (48hr): Maximum inhibition (%)): 65.1%; Emax ([1]; DD2, 96hr, 11-point, read-out: CDD P. falciparum Luciferase ABS 11-pt Reconfirmation Dose Response (96hr): Maximum inhibition (%)): 94.2%; IC50 [1, 18]: 0.21 µM |
| CN1CCC(C2CCN(Cc3cccc(-n4cccn4)c3)CC2)C1 (stereo not shown) [DDD01255349] | 2050 nM | 94.8% | 0.818 µM | 0.65 µM | 93.2% | 97.1% | 0.46 µM | 100% |  |
| Clc1cccc2c3c([nH]c12)CCN(Cc1cc2n(n1)CCCNC2)C3 [DDD01255494] |  |  |  |  |  |  |  |  | IC50 (P. falciparum Dd2; [10]): 3520 nM; Emax (P. falciparum Dd2; [11]): 91%; IC50 [1, 12]: 3.79 µM; IC50 [1, 13]: 1.21 µM; Emax [1, 14]: 91.2%; IC50 [1, 16]: 1.07 µM; Emax [1, 17]: 99.6% |
| COc1ccc(-c2ccccc2CCN)c(OC)c1OC [DDD01256178] | 3030 nM | 89.5% | 3.3 µM | 1 µM | 87.9% | 83.2% | 2.11 µM | 98.8% |  |
| CC(C)(C)c1nccc(C2(c3ccccc3Cl)CCNCC2)n1 [DDD01256872] |  |  |  |  |  |  |  |  | IC50 (P. falciparum Dd2; [10]): 1710 nM; Emax (P. falciparum Dd2; [11]): 74.4%; IC50 [1, 12]: 5.56 µM; IC50 [1, 13]: 2.03 µM; Emax [1, 14]: 78.8%; Emax [1, 15]: 91.9%; IC50 [1, 16]: 1.22 µM; Emax [1, 17]: 98.3% |
| CO[C@H]1CN(C(C)C)C[C@@H]1NC(=O)c1cc(-c2ccccc2O)n[nH]1 [DDD01257008] |  |  |  |  |  |  |  |  | IC50 (P. falciparum Dd2; [10]): 4520 nM; Emax (P. falciparum Dd2; [11]): 94.2%; IC50 [1, 12]: 7.18 µM; IC50 [1, 13]: 1.29 µM; Emax [1, 14]: 94.7%; Emax [1, 15]: 87.1%; IC50 [1, 16]: 3.21 µM; Emax [1, 17]: 97.2% |
| CC(C)n1ccnc1C1CCCN(c2ccnc3ccccc23)C1 (stereo not shown) [DDD01257414] | 1940 nM | 98.5% | 2.09 µM | 0.8 µM | 94.6% | 95.8% | 1.64 µM | 99.7% |  |
| CC(C)N1CCC(NCc2cccnc2N(C)Cc2ccccc2)CC1 [DDD01257477] | 163 nM |  | > 12.5 µM | 0.45 µM | 89.2% | 61.1% | 3.84 µM | 87.8% |  |
| Cc1nc[nH]c1CN(C)CC1CCCN(CCc2ccc(Cl)cc2)C1 (stereo not shown) [DDD01257555] | 963 nM | 98.8% | 1.62 µM | 0.65 µM | 93.5% | 99.6% | 0.463 µM | 99.9% |  |
| Clc1ccccc1C1(c2ccnc(CC3CC3)n2)CCNCC1 [DDD01257764] | 422 nM | 70.6% | 3.74 µM | 0.27 µM | 92.2% | 90.6% | 0.581 µM | 98% | IC50 [1, 18]: 0.58 µM |
| OCC1CCCCN1c1ccc(-c2nc(-c3ccccc3F)no2)cn1 (stereo not shown) [DDD01257937] | > 12500 nM | 41.3% | 1.36 µM | 0.46 µM | 90.5% | 83.7% | 1.23 µM | 89.1% |  |
| Clc1ccccc1C1(c2ccnc(-c3ccncc3)n2)CCNCC1 [DDD01257938] | 2220 nM | 98.9% | 4.26 µM | 0.31 µM | 93.5% | 98.2% | 0.482 µM | 99.5% |  |
| CN(Cc1cccc(O)c1)CC1CCCN(CCc2ccc(Cl)cc2)C1 (stereo not shown) [DDD01257948] | 802 nM | 98% | 2.24 µM | 0.67 µM | 94.6% | 97.4% | 1.38 µM | 99.5% |  |
| CCn1ccnc1CN1CCCC(CO)(Cc2cccc(Cl)c2)C1 (stereo not shown) [DDD01258327] |  |  |  |  |  |  |  |  | IC50 (P. falciparum Dd2; [10]): 3020 nM; Emax (P. falciparum Dd2; [11]): 58.2%; IC50 [1, 12]: > 12.5 µM; IC50 [1, 13]: 2.14 µM; Emax [1, 14]: 81.2%; Emax [1, 15]: 38.3%; IC50 [1, 16]: 2.68 µM; Emax [1, 17]: 82.9% |
| COc1cc(CNCC(O)c2cccc(F)c2)cc2c1OCO2 (stereo not shown) [DDD01296688] | 4840 nM | 88.3% | 3.64 µM | 0.82 µM |  | 88.9% | 1.77 µM | 98.5% |  |
